This is an account of results in patent publication US4894453A, “2-substituted alkoxy-3-substituted-pyrazines” (Toyo Jozo Kabushiki Kaisha, priority 1986, dated 1990).

The first assay has as its system PAF-induced aggregation (rabbit platelet plasma). Kind of assay: Platelet aggregation inhibitory action on PAF-induced aggregation. In kind it is cell-based. To be noted: Oryctolagus cuniculus, 0.05 h, 100 μM, PAF 10-50 μg/ml, 37° C., 3 min incubation, hydrochloride salt, read-out: inhibition ratio, PAF-induced platelet aggregation. As to the method: (§1) The pharmacological activity of the present compounds [1] is illustrated below. All the compounds [1] used in the pharmacological tests were tested in the form of the hydrochloride salt thereof.
1. Platelet aggregation inhibition:
Sample solution containing a compound [1] (final concentration 500 or 100 μM) is added to rabbit platelet plasma to which was added 10% by volume of a 3.8% sodium citrate solution, and the mixture is incubated at 37° C. for 3 minutes. A platelet activation factor (PAF, final concentration 10-50 μg/ml) or collagen (final concentration 2.5 μg/ml) is added thereto as an aggregating agent, and platelet aggregation activity is measured with an aggregometer. The results of assays for PAF-induced aggregation are shown in Table 3, and those for collagen-induced aggregation are shown in Table 4, which tables show the strong platelet aggregation inhibitory activity of the compounds [1] of the present invention.
As to `CCc1nc(C)c(C)nc1OC(C(=O)NCCN1CCOCC1)c1ccccc1` (centres unmarked) [Compound 341], the inhibition at 100 µM was determined as 42%.

In the case of `CCc1nc(C)c(C)nc1OC(C(=O)NCCN1CCN(Cc2ccccc2)CC1)c1ccccc1` (centres unmarked) [Compound 342], the inhibition at 100 µM was found to be 43%.

On to `CCc1nc(C)c(C)nc1OCCN1CCCN(Cc2ccc(F)cc2)CC1` [Compound 503], for which the inhibition at 100 µM was 42%.

For `CCc1nc(C)c(C)nc1OCCN1CCCN(Cc2ccc(Cl)cc2)CC1` [Compound 504], the inhibition at 100 µM is 60%.

Take `Cc1nc(C)c(OCCN2CCCN(Cc3ccc(Cl)cc3)CC2)nc1C` [Compound 541]: the inhibition at 100 µM worked out at 44%.

As to `CCCCN1CCN(CCOc2nc(CC)c(CC)nc2C(C)C)CC1` [Compound 551], the inhibition at 100 µM turned out to be 97%.

As to `CCc1nc(OCCN2CCN(Cc3ccccc3)CC2)c(C(C)C)nc1CC` [Compound 552], the inhibition at 100 µM worked out at 78%.

Regarding `CCc1nc(OCCN2CCCN(Cc3ccc(OC)cc3)CC2)c(C(C)C)nc1CC` [Compound 553], the inhibition at 100 µM came out at 82%.

As to `CCCCCc1nc2c(nc1OCCN1CCN(CCCC)CC1)CCCC2` [Compound 560], the inhibition at 100 µM amounted to 97%.

For the compound `CCCCCc1nc2c(nc1OCCN1CCN(Cc3ccccc3)CC1)CCCC2` [Compound 561], the inhibition at 100 µM was determined as 56%.

As to `CCCCCCc1nc2c(nc1OCCN1CCN(CCCC)CC1)CCCC2` [Compound 565], the inhibition at 100 µM was 94%.

Consider `CCCCCCc1nc2c(nc1OCCN1CCN(Cc3ccccc3)CC1)CCCC2` [Compound 567], for which the inhibition at 100 µM amounted to 58%.

Turning to `CCCCCCCc1nc2c(nc1OCCN1CCN(CCCC)CC1)CCCC2` [Compound 571], the inhibition at 100 µM turned out to be 88%.

The same assay, now with this note: Oryctolagus cuniculus, 0.05 h, 500 μM, PAF 10-50 μg/ml, 37° C., 3 min incubation, hydrochloride salt, read-out: inhibition ratio, PAF-induced platelet aggregation.
For `Cc1nc(C)c(OCC(=O)N2CCN(C(=O)COc3nc(C)c(C)nc3C)CC2)nc1C` [Compound 070], the inhibition at 500 µM was found to be 48%.

A further assay has as its system lipoperoxide generation in rat cerebrum. Briefly: Antioxidant activity (inhibition of lipoperoxide generation, method of Stocks et al.). In kind it is biochemical. As to conditions: 100 μM; rat cerebrum supernatant, 37° C., 15 min, thiobarbituric acid, 532 nm; hydrochloride salt. As to the method:
as §1
Antioxidant activity is determined according to the method of Stocks et al. [Clin. Sci. Mol. Med., 47: 215 (1974)]. Rat cerebrum is added to ice-cooled 40 mM phosphate saline buffer solution (PBS) (pH 7.4, 4 ml buffer per 1 g cerebrum), homogenized and centrifuged (1000×g, 4° C., 10 min.) to obtain a supernatant solution. The supernatant solution is diluted fivefold with the above ice-cooled PBS solution, and to a 0.9 ml aliquot thereof is added a sample containing a compound [1] (0.1 ml, final concentration 100 μM) dissolved in ethanol. The resultant mixture is incubated at 37° C. for 15 minutes, 35% perchloric acid (0.2 ml) is added, and the mixture is ice-cooled to stop the reaction and centrifuged (1300×g, 4° C., 10 min.). 0.5 ml thiobarbituric acid (5 g/lit. of 50% acetic acid) is added to the supernatant solution (1 ml), so as to measure its absorbancy at 532 nm. The amount of lipoperoxide thus generated is expressed as an amount of malondialdehyde.
Regarding `CCc1nc(C)c(C)nc1OC(C(=O)NCCN1CCN(Cc2ccc(Cl)cc2Cl)CC1)c1ccccc1` (centres unmarked) [Compound 345], the “inhibition ratio, lipoperoxide generation (antioxidant activity)” value (from here on “inhibition ratio”) was found to be 54%.

Regarding `O=C(COc1nc2c(nc1Cc1ccccc1)CCCC2)NCCN1CCN(c2ccc(Cl)cc2)CC1` [Compound 371], the “inhibition ratio” value is reported as 49%.

`O=C(COc1nc2c(nc1Cc1ccccc1)CCCC2)NCCN1CCCN(Cc2ccc(F)cc2)CC1` [Compound 372]: the “inhibition ratio” value was determined as 64%.

Consider `O=C(COc1nc2c(nc1Cc1ccccc1)CCCC2)NCCN1CCN(c2ccccc2)CC1` [Compound 373], for which the “inhibition ratio” value was 49%.

Consider `CCc1nc(Cc2ccccc2)c(OCC(=O)NCCN2CCN(Cc3ccc(Cl)cc3)CC2)nc1CC` [Compound 379], for which the “inhibition ratio” value was 50%.

For `CCc1nc(Cc2ccccc2)c(OCC(=O)NCCN2CCCN(Cc3ccc(Cl)cc3)CC2)nc1CC` [Compound 382], the “inhibition ratio” value came to 83%.

On to `Cc1nc(Cc2ccccc2)c(OCCN2CCCN(Cc3ccc(Cl)cc3)CC2)nc1C` [Compound 516], for which the “inhibition ratio” value amounted to 75%.

As to `CCCCc1nc2c(nc1OCCN1CCCN(Cc3ccc(Cl)cc3)CC1)CCCC2` [Compound 520], the “inhibition ratio” value worked out at 83%.

Regarding `CCCCCCc1nc2c(nc1OCCN1CCN(Cc3ccc(Cl)cc3)CC1)CCCC2` [Compound 568], the “inhibition ratio” value is given as 61%.

On to `CCCCCCc1nc2c(nc1OCCN1CCCN(Cc3ccc(F)cc3)CC1)CCCC2` [Compound 569], for which the “inhibition ratio” value was 81%.

On to `CCCCCCCCc1nc2c(nc1OCCN1CCN(Cc3ccccc3)CC1)CCCC2` [Compound 574], for which the “inhibition ratio” value came out at 71%.

For `CCCCCCCCc1nc2c(nc1OCCN1CCN(Cc3ccc(Cl)cc3)CC1)CCCC2` [Compound 575], the “inhibition ratio” value is reported as 79%.

`CCCCCCCCc1nc2c(nc1OCCN1CCCN(Cc3ccc(F)cc3)CC1)CCCC2` [Compound 576]: the “inhibition ratio” value is on record as 85%.

In the case of `CCCCCCCCc1nc2c(nc1OCCN1CCN(c3ccccc3)CC1)CCCC2` [Compound 577], the “inhibition ratio” value came out at 71%.

`CCCCCCCCc1nc2c(nc1OCCN1CCN(c3ccccc3OC)CC1)CCCC2` [Compound 578]: the “inhibition ratio” value is recorded as 88%.

For the compound `CCCCCCCCCc1nc2c(nc1OCCN1CCN(Cc3ccccc3)CC1)CCCC2` [Compound 581], the “inhibition ratio” value worked out at 71%.

For the compound `CCCCCCCCCc1nc2c(nc1OCCN1CCCN(Cc3ccc(Cl)cc3)CC1)CCCC2` [Compound 583], the “inhibition ratio” value is 82%.

`CCCCCCCCCCc1nc2c(nc1OCCN1CCCCC1)CCCC2` [Compound 586]: the “inhibition ratio” value is reported as 68%.

On to `CCCCCCCCCCc1nc2c(nc1OCCN1CCN(Cc3ccccc3)CC1)CCCC2` [Compound 589], for which the “inhibition ratio” value amounted to 74%.

In the case of `CCCCCCCCCCc1nc2c(nc1OCCN1CCN(Cc3ccc(Cl)cc3)CC1)CCCC2` [Compound 590], the “inhibition ratio” value is recorded as 74%.

Regarding `CCCCCCCCCCc1nc2c(nc1OCCN1CCN(C(c3ccccc3)c3ccccc3)CC1)CCCC2` [Compound 591], the “inhibition ratio” value stood at 59%.

As to `CCCCCCCCCCc1nc2c(nc1OCCN1CCCN(Cc3ccc(F)cc3)CC1)CCCC2` [Compound 592], the “inhibition ratio” value worked out at 85%.

For the compound `CCCCCCCCCCc1nc2c(nc1OCCN1CCN(c3ccc(OC)cc3)CC1)CCCC2` [Compound 593], the “inhibition ratio” value was determined as 73%.

In the case of `CCCCCCCCCCCCc1nc2c(nc1OCCN1CCOCC1)CCCC2` [Compound 594], the “inhibition ratio” value is 58%.

Regarding `CCCCCCCCCCCCc1nc2c(nc1OCCN1CCN(Cc3ccccc3)CC1)CCCC2` [Compound 596], the “inhibition ratio” value is reported as 73%.

Consider `CCCCCCCCCCCCc1nc2c(nc1OCCN1CCN(Cc3ccc(OC)cc3)CC1)CCCC2` [Compound 597], for which the “inhibition ratio” value is 76%.

On to `CCCCCCCCCCCCc1nc2c(nc1OCCN1CCCN(Cc3ccc(F)cc3)CC1)CCCC2` [Compound 598], for which the “inhibition ratio” value was 88%.

For the compound `CCCCCCCCCCCCc1nc2c(nc1OCCN1CCN(c3ccccc3OC)CC1)CCCC2` [Compound 599], the “inhibition ratio” value came to 70%.

Consider `CCCCCCCCCCCCCCc1nc2c(nc1OCCN1CCN(Cc3ccccc3)CC1)CCCC2` [Compound 601], for which the “inhibition ratio” value is listed as 67%.

Turning to `CCCCCCCCCCCCCCc1nc2c(nc1OCCN1CCN(Cc3ccc(F)cc3)CC1)CCCC2` [Compound 602], the “inhibition ratio” value was determined as 64%.

`CCCCCCCCCCCCCCc1nc2c(nc1OCCN1CCCN(Cc3ccc(Cl)cc3)CC1)CCCC2` [Compound 603]: the “inhibition ratio” value is given as 76%.

Take `CCCCCCCCCCCCCCCCc1nc2c(nc1OCCN1CCN(CCCC)CC1)CCCC2` [Compound 607]: the “inhibition ratio” value is on record as 52%.

As for `CCCCCCCCCCCCCCCCc1nc2c(nc1OCCN1CCN(Cc3ccccc3)CC1)CCCC2` [Compound 608], the “inhibition ratio” value came out at 55%.
